Values quoted from earlier work in patent publication US5500433A, “Method of treating drug abuse” (Merrell Pharmaceuticals Inc., priority 1995, dated 1996).

Legend:
[1] = test system: vascular smooth muscle cells; settings: rabbit vascular smooth muscle cells
[2] = test system: coronary vessels; settings: patients with stable angina
[3] = test system: preference for alcohol and cocaine; settings: rodent
[4] = test system: phospholipase C mediated hydrolysis of phosphoinositides; settings: rabbit vascular smooth muscle cells
[5] = test system: thrombus formation; settings: canine models

NCCc1c[nH]c2ccc(O)cc12 [serotonin]
effect on PDGF induced DNA synthesis [1]: stimulates PDGF induced DNA synthesis
effect on coronary vessel constriction [2]: induced constriction of the coronary vessels in these patients at all concentrations tested

Cc1nc2sccn2c(=O)c1CCN1CCC(=C(c2ccc(F)cc2)c2ccc(F)cc2)CC1 [ritanserin]
effect on preference for alcohol and cocaine [3]: abolished the preference for both alcohol and cocaine

O=C(c1ccc(F)cc1)C1CCN(CCn2c(=O)[nH]c3ccccc3c2=O)CC1 [Ketanserin]
effect on PDGF induced DNA synthesis [1]: inhibited PDGF induced DNA synthesis
inhibition of phospholipase C mediated hydrolysis of phosphoinositides [4]: inhibited phospholipase C mediated hydrolysis of phosphoinositides
prevention of thrombus formation [5]: extremely effective in preventing thrombus formation
effect on coronary vessel constriction [2]: blocked coronary vessel constriction
